Molecules are shown by their SMILES.

The species named for the assay is Rattus norvegicus. Kind of assay: The ability to inhibit the 5-HT-induced contraction of isolated rat fundus muscle was determined. Format: functional. To be noted: read-out: pA2 (converted).
Regarding `COc1ccc2c(CCN(C)C)c[nH]c2c1`, the Kb was 1700 nM.

Consider `CN(C)CCc1c[nH]c2ccc3c(c12)OCO3`, for which the Kb was 398 nM.

Consider `CN(C)CCc1c[nH]c2cc3c(cc12)OCO3`, for which the Kb is 1020 nM.

Regarding `CSc1cccc2[nH]cc(CCN(C)C)c12`, the Kb is 617 nM.

`CSc1ccc2[nH]cc(CCN(C)C)c2c1`: the Kb was 145 nM.

As to `COc1cccc2[nH]cc(CCN(C)C)c12`, the Kb was 676 nM.

As to `CSc1ccc2c(CCN(C)C)c[nH]c2c1`, the Kb was 1200 nM.

For the compound `COc1ccc2[nH]cc(CCN(C)C)c2c1` [MEBUFOTENIN], the Kb is 83.2 nM.

On to `CN(C)CCc1c[nH]c2ccccc12` [N,N-DIMETHYLTRYPTAMINE], for which the Kb was 1000 nM.

The record behind these values is ChEMBL document CHEMBL1121976, “Structure-activity relationships for hallucinogenic N,N-dialkyltryptamines: photoelectron spectra and serotonin receptor affinities of methylthio and methylenedioxy derivatives” (J Med Chem, 1982).
